Test results taken from DBAASP.
In brackets after ≈: the same amount, converted by molar mass. Values belong to the compound of their own block, whether it stands above or below them.

Columns and labels:
Assay in all cases: ≥ marks a high value that may be exact or a test limit, other limits are often not marked, values filed in µg/mL are converted to µM
[1] = test system: Pseudomonas aeruginosa PAO1
Escherichia coli BL21 = test system: Escherichia coli BL21
[2] = test system: Streptococcus pyogenes M1T1 5448
Salmonella sp. = test system: Salmonella sp.
[3] = test system: Staphylococcus aureus ATCC 2592
[4] = test system: Bacillus licheniformis X39
[5] = test system: Psychrobacter faecalis X29
[6] = test system: Rhodococcus rhodochrous X15
[7] = test system: Staphylococcus aureus ATCC 9144
[8] = test system: Corynebacterium glutamicum ATCC 13032
Micrococcus luteus = test system: Micrococcus luteus
Bacillus megaterium = test system: Bacillus megaterium
[9] = test system: Candida albicans ATCC 10231
[10] = test system: Bacillus subtilis ATCC 23857
Aureobasidium pullulans = test system: Aureobasidium pullulans
[11] = test system: Escherichia coli ATCC 25922
[12] = test system: Pseudomonas aeruginosa ATCC 27853
[13] = test system: Klebsiella pneumoniae ATCC 700603
[14] = test system: Staphylococcus aureus SH1000
[15] = test system: Staphylococcus aureus ATCC 43300
[16] = test system: Acinetobacter baumannii ATCC 19606
[17] = test system: Cryptococcus neoformans ATCC 208821
[18] = test system: Candida albicans ATCC 90028
[19] = test system: Streptococcus sobrinus ATCC 33478
[20] = test system: Streptococcus mitis ATCC 903
Staphylococcus aureus = test system: Staphylococcus aureus
[21] = test system: Pseudomonas aeruginosa PAK
[22] = test system: Streptococcus gordonii Challis DL1
[23] = test system: Streptococcus sanguinis NY101
Enterococcus faecalis = test system: Enterococcus faecalis
Escherichia coli W3110 = test system: Escherichia coli W3110
[24] = test system: Streptococcus mutans UA159
[25] = test system: Pseudomonas aeruginosa ATCC 9027
[26] = test system: Candida albicans FRR 5580
[27] = test system: Staphylococcus aureus ATCC 25923

SMILES: CC[C@H](C)[C@H](NC(=O)[C@H](CCCCN)NC(=O)[C@H](CCCCN)NC(=O)[C@H](Cc1c[nH]c2ccccc12)NC(=O)[C@H](CCC(=O)O)NC(=O)[C@H](CC(N)=O)NC(=O)[C@@H](NC(=O)[C@@H](NC(=O)[C@H](CCCCN)NC(=O)[C@H](CCCCN)NC(=O)[C@H](CC(C)C)NC(=O)[C@H](CCCN=C(N)N)NC(=O)[C@H](CC(N)=O)NC(=O)[C@H](Cc1ccccc1)NC(=O)[C@@H](NC(=O)[C@H](CCCCN)NC(=O)[C@H](CCC(=O)O)NC(=O)[C@@H](NC(=O)CNC(=O)[C@H](C)N)[C@@H](C)O)[C@@H](C)CC)[C@@H](C)O)[C@@H](C)CC)C(=O)N[C@@H](C)C(=O)N[C@@H](CCCCN)C(=O)N[C@@H](CCCN=C(N)N)C(=O)N[C@@H](C)C(=O)N[C@@H](Cc1c[nH]c2ccccc12)C(=O)O [AGTEKIFNRLKKTINEWKKIAKRAW]
MIC [1]: 16 µM (≈ 48.5 µg/mL)
MIC (Escherichia coli BL21): 4 µM (≈ 12.1 µg/mL)
MIC [2]: 8 µM (≈ 24.2 µg/mL)

SMILES: CC[C@H](C)[C@H](NC(=O)[C@H](CCCCN)NC(=O)[C@H](CCCCN)NC(=O)CNC(=O)[C@H](CCC(=O)O)NC(=O)[C@H](CCC(N)=O)NC(=O)[C@@H](NC(=O)[C@@H](NC(=O)[C@H](CCCCN)NC(=O)[C@H](CCCCN)NC(=O)[C@H](CC(C)C)NC(=O)[C@H](CCCN=C(N)N)NC(=O)[C@H](CCC(N)=O)NC(=O)[C@H](Cc1ccccc1)NC(=O)[C@@H](NC(=O)[C@H](CCCCN)NC(=O)[C@H](CCC(=O)O)NC(=O)[C@@H](NC(=O)CNC(=O)[C@H](C)N)[C@@H](C)O)[C@@H](C)CC)[C@@H](C)O)[C@@H](C)CC)C(=O)N[C@@H](C)C(=O)N[C@@H](CCCCN)C(=O)N[C@@H](CCCN=C(N)N)C(=O)N[C@@H](Cc1c[nH]c2ccccc12)C(=O)N[C@@H](Cc1c[nH]c2ccccc12)C(=O)O [AGTEKIFQRLKKTIQEGKKIAKRWW]
MIC [1]: 16 µM (≈ 48.7 µg/mL)
MIC (Escherichia coli BL21): 0.25 µM (≈ 0.761 µg/mL)
MIC [2]: 0.125 µM (≈ 0.381 µg/mL)

SMILES: CC[C@H](C)[C@H](NC(=O)[C@H](C)NC(=O)CNC(=O)[C@@H](NC(=O)[C@@H](N)Cc1ccccc1)[C@@H](C)CC)C(=O)N[C@@H](C)C(=O)N[C@@H](CCCN=C(N)N)C(=O)N[C@@H](CC(C)C)C(=O)N[C@@H](CC(C)C)C(=O)N[C@@H](CO)C(=O)N[C@@H](CCCCN)C(=O)N[C@H](C(=O)N[C@@H](Cc1ccccc1)C(=O)O)[C@@H](C)CC [FIGAIARLLSKIF]
MIC (Salmonella sp.): ≥ 90.5 µM

SMILES: CC[C@H](C)[C@@H]1NC(=O)[C@H](CCCCN)NC(=O)[C@@H](NC(=O)[C@@H](NC(=O)[C@@H](NC(=O)[C@H](CCC(N)=O)NC(=O)[C@@H]2CCCN2C(=O)[C@H](CC(C)C)NC(=O)[C@H](Cc2ccccc2)NC(=O)[C@H](CC(N)=O)NC(=O)[C@H](C)NC(=O)[C@@H](NC(=O)[C@@H](NC(=O)CNC(=O)[C@H](C)NC(=O)[C@H](CC(C)C)NC(=O)[C@H](CC(C)C)NC(=O)[C@@H]2CCCN2C(=O)[C@H](CC(C)C)NC(=O)[C@@H](N)Cc2ccccc2)C(C)C)C(C)C)[C@@H](C)CC)[C@@H](C)CC)CSSC[C@@H](C(=O)O)NC(=O)[C@H](CCCCN)NC(=O)[C@H](CCCN=C(N)N)NC(=O)[C@H](C)NC1=O [FLPLLAGVVANFLPQIICKIARKC]
MIC [3]: 2.4 µM (≈ 6.3 µg/mL)
MIC [4]: 9.51 µM (≈ 25 µg/mL)
MIC [5]: 4.76 µM (≈ 12.5 µg/mL)
MIC [6]: 1.18 µM (≈ 3.1 µg/mL)

SMILES: C[C@H](NC(=O)[C@H](CCCCN)NC(=O)[C@H](Cc1c[nH]c2ccccc12)NC(=O)CNC(=O)[C@H](Cc1c[nH]c2ccccc12)NC(=O)[C@@H]1CCCN1C(=O)[C@H](CCCCN)NC(=O)[C@H](CCCCN)NC(=O)CN)C(=O)N[C@@H](CCCCN)C(N)=O [GKKPWGWKAK]
MIC [7]: ≥ 211 µM
MIC [8]: 13.2 µM (≈ 15.6 µg/mL)
MIC (Micrococcus luteus): ≥ 211 µM
MIC (Bacillus megaterium): 3.29 µM (≈ 3.9 µg/mL)
MIC [9]: 105 µM (≈ 125 µg/mL)
MIC [10]: ≥ 211 µM
MIC (Aureobasidium pullulans): ≥ 52.7 µM
MIC [11]: > 211 µM
MIC [12]: > 211 µM

Next, values leading:

MIC [13]: 5 µM (≈ 7.54 µg/mL)
MIC [14]: 10 µM (≈ 15.1 µg/mL)
MIC [15]: 3 µM (≈ 4.52 µg/mL)
MIC [16]: 1 µM (≈ 1.51 µg/mL)
MIC [17]: 3 µM (≈ 4.52 µg/mL)
MIC [11]: 1 µM (≈ 1.51 µg/mL)
MIC [18]: 11 µM (≈ 16.6 µg/mL)
MIC [12]: 21 µM (≈ 31.6 µg/mL)
SMILES: CC(C)C[C@H](NC(=O)[C@H](C)NC(=O)CNC(=O)[C@H](CC(C)C)NC(=O)[C@H](CC(C)C)NC(=O)[C@H](CCCCN)NC(=O)[C@H](CCCCN)NC(=O)[C@H](CC(C)C)NC(=O)[C@H](CC(C)C)NC(=O)[C@H](CCCCN)NC(=O)[C@H](CC(C)C)NC(=O)[C@H](CC(C)C)NC(=O)[C@@H](N)CCCCN)C(=O)NCC(N)=O [KLLKLLKKLLGALG]

MIC [19]: ≥ 438 µM
MIC [20]: ≥ 438 µM
MIC (Staphylococcus aureus): > 438 µM
MIC [21]: ≥ 438 µM
MIC [22]: ≥ 438 µM
MIC [23]: ≥ 438 µM
MIC (Enterococcus faecalis): ≥ 438 µM
MIC (Escherichia coli W3110): ≥ 438 µM
MIC [24]: ≥ 109 µM
SMILES: CC[C@H](C)[C@H](NC(=O)[C@H](Cc1cnc[nH]1)NC(=O)[C@H](CCCCN)NC(=O)[C@@H](NC(=O)[C@@H](N)CC(C)C)[C@@H](C)CC)C(=O)N[C@@H](CC(C)C)C(=O)N[C@@H](Cc1cnc[nH]1)C(=O)N[C@@H](CCCN=C(N)N)C(=O)N[C@@H](CC(C)C)C(N)=O [LIKHILHRL]

MIC [25]: 30.6 µM (≈ 32 µg/mL)
MIC [26]: ≥ 61.1 µM
SMILES: NCCCC[C@H](NC(=O)[C@H](Cc1c[nH]c2ccccc12)NC(=O)[C@H](Cc1c[nH]c2ccccc12)NC(=O)[C@@H](N)CCCN=C(N)N)C(=O)N[C@@H](Cc1c[nH]c2ccccc12)C(=O)N[C@@H](Cc1c[nH]c2ccccc12)C(N)=O [RWWKWW]

MIC (Staphylococcus aureus): 2.82 µM (≈ 4 µg/mL)
MIC [25]: 22.5 µM (≈ 32 µg/mL)
MIC [11]: 5.64 µM (≈ 7.99 µg/mL)
MIC [26]: ≥ 45.1 µM
MIC [27]: 5.64 µM (≈ 7.99 µg/mL)
SMILES: NCCCC[C@H](NC(=O)[C@H](Cc1c[nH]c2ccccc12)NC(=O)[C@H](Cc1c[nH]c2ccccc12)NC(=O)[C@H](CCCN=C(N)N)NC(=O)[C@H](Cc1c[nH]c2ccccc12)NC(=O)[C@@H](N)Cc1c[nH]c2ccccc12)C(=O)N[C@@H](Cc1c[nH]c2ccccc12)C(=O)N[C@@H](Cc1c[nH]c2ccccc12)C(N)=O [WWRWWKWW]

MIC [19]: ≥ 87.5 µM
MIC [20]: ≥ 87.5 µM
MIC (Staphylococcus aureus): > 87.5 µM
MIC [21]: ≥ 87.5 µM
MIC [22]: ≥ 87.5 µM
MIC [23]: ≥ 87.5 µM
MIC (Enterococcus faecalis): ≥ 87.5 µM
MIC (Escherichia coli W3110): ≥ 87.5 µM
MIC [24]: ≥ 87.5 µM
SMILES: C[C@@H](O)[C@H](NC(=O)[C@H](Cc1c[nH]c2ccccc12)NC(=O)[C@H](Cc1c[nH]c2ccccc12)NC(=O)[C@H](Cc1ccc(O)cc1)NC(=O)[C@H](CO)NC(=O)[C@H](Cc1c[nH]c2ccccc12)NC(=O)[C@@H](N)Cc1c[nH]c2ccccc12)C(=O)N[C@@H](CCC(N)=O)C(=O)N[C@@H](Cc1c[nH]c2ccccc12)C(N)=O [WWSYWWTQW]
